This note sets out measurements from patent publication US11708359B2, “Monoacylglycerol lipase modulators” (Janssen Pharmaceutica NV, priority 2020, dated 2023).

Molecules are shown by their SMILES.

Chain of human MGL from HeLa cells (Q99685 whole entry): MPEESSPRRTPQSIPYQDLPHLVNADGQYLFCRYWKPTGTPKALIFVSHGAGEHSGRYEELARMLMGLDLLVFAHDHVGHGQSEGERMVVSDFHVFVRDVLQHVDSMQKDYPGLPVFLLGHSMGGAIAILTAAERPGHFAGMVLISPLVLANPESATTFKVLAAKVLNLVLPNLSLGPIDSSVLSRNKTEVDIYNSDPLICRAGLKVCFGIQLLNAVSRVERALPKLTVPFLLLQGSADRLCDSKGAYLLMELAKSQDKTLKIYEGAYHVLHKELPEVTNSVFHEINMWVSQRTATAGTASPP

The assay concerns the target human MGL from HeLa cells (Homo sapiens (Human), UniProt Q99685). Description: MGL in vitro activity assay ([glycerol-1,3-3H]-oleoyl glycerol cleavage, activated carbon filter). The format is biochemical. To be noted: 300 nM [Glycerol-1,3-3H]-oleoyl glycerol, endogenously expressed MGL from HeLa cells, one hour incubation; read-out: MGL IC50. As to the method:
The assay consists of combining endogenously expressed MGL from HeLa cells with test compounds, adding[glycerol-1,3-^3H]-oleoyl glycerol, incubating for one hour, and then measuring the amount of cleaved[1,3-^3H]-glycerol that passes through an activated carbon filter. The amount of cleaved, tritiated glycerol passing through the carbon filter is proportional to the activity of the MGL enzyme in a particular well/test condition.
Standard conditions for this assay combine 300 nM [Glycerol-1,3-^3H]-oleoyl glycerol with human MGL from HeLa cells and test compounds for one hour, after which the reaction is filtered through activated carbon and tritium is measured in the flow through. […] MGL is the predominant hydrolase in HeLa cells/cell homogenates.
On to `O=C1N[C@]2(CO1)C[C@H](C(=O)N1CC3CC3(c3ccccc3)C1)C2` (mixture of isomers) [Example 4, (rac)-(2s,4s)-2-(1-Phenyl-3-azabicyclo[3.1.0]hexane-3-carbonyl)-7-oxa-5-azaspiro[3.4]octan-6-one], for which the 50% inhibitory concentration (IC50) (in general, the concentration needed to halve the response being measured) amounted to 49 nM.

As for `CC(C)c1cccc(C23CC2CN(C(=O)[C@H]2C[C@]4(COC(=O)N4)C2)C3)c1` (mixture of isomers) [Example 6, (rac)-(2s,4s)-2-(1-(3-Isopropylphenyl)-3-azabicyclo[3.1.0]hexane-3-carbonyl)-7-oxa-5-azaspiro[3.4]octan-6-one], the IC50 turned out to be 6.9 nM.

Take `CC(C)c1ccc(C23CC2CN(C(=O)[C@H]2C[C@]4(COC(=O)N4)C2)C3)cc1` (mixture of isomers) [Example 9, (rac)-(2s,4s)-2-(1-(4-Isopropylphenyl)-3-azabicyclo[3.1.0]hexane-3-carbonyl)-7-oxa-5-azaspiro[3.4]octan-6-one]: the IC50 is 2.2 nM.

With `CC(C)c1ccc(C23CC2CN(C(=O)[C@H]2C[C@]4(CCC(=O)N4)C2)C3)cc1` (mixture of isomers) [Example 12, (rac)-(2r,4s)-2-(1-(4-Isopropylphenyl)-3-azabicyclo[3.1.0]hexane-3-carbonyl)-5-azaspiro[3.4]octan-6-one], the IC50 is 14 nM.

On to `CC(C)(C)c1ccc(C23CC2CN(C(=O)[C@H]2C[C@]4(CCC(=O)N4)C2)C3)cc1` (mixture of isomers) [Example 13, (rac)-(2r,4s)-2-(1-(4-(tert-Butyl)phenyl)-3-azabicyclo[3.1.0]hexane-3-carbonyl)-5-azaspiro[3.4]octan-6-one], for which the IC50 came to 9.2 nM.

As to `O=C1N[C@]2(CO1)C[C@H](C(=O)N1CC3CC3(c3cccc(C4CC4)c3)C1)C2` (mixture of isomers) [Example 16, (rac)-(2s,4s)-2-(1-(3-Cyclopropylphenyl)-3-azabicyclo[3.1.0]hexane-3-carbonyl)-7-oxa-5-azaspiro[3.4]octan-6-one], the IC50 turned out to be 5.6 nM.

For the molecule `O=C1N[C@]2(CO1)C[C@H](C(=O)N1CC3CC3(c3ccc(C4CC4)cc3)C1)C2` (mixture of isomers) [Example 18, (rac)-(2s,4s)-2-(1-(4-Cyclopropylphenyl)-3-azabicyclo[3.1.0]hexane-3-carbonyl)-7-oxa-5-azaspiro[3.4]octan-6-one], the IC50 was 4.4 nM.

Turning to `O=C1N[C@]2(CO1)C[C@H](C(=O)N1CC3CC3(c3cccc(OC(F)(F)F)c3)C1)C2` (mixture of isomers) [Example 19, (rac)-(2s,4s)-2-(1-(3-(Trifluoromethoxy)phenyl)-3-azabicyclo[3.1.0]hexane-3-carbonyl)-7-oxa-5-azaspiro[3.4]octan-6-one], the IC50 was determined as 11 nM.

For the molecule `Cc1ccccc1C12CC1CN(C(=O)[C@H]1C[C@]3(COC(=O)N3)C1)C2` (mixture of isomers) [Example 20, (rac)-(2s,4s)-2-(1-(o-Tolyl)-3-azabicyclo[3.1.0]hexane-3-carbonyl)-7-oxa-5-azaspiro[3.4]octan-6-one], the 50% inhibitory concentration (IC50) was 6.5 nM.

`Cc1cccc(C23CC2CN(C(=O)[C@H]2C[C@]4(COC(=O)N4)C2)C3)c1` (mixture of isomers) [Example 21, (rac)-(2s,4s)-2-(1-(m-Tolyl)-3-azabicyclo[3.1.0]hexane-3-carbonyl)-7-oxa-5-azaspiro[3.4]octan-6-one]: the IC50 stood at 14 nM.

As to `O=C1N[C@]2(CO1)C[C@H](C(=O)N1CC3CC3(c3ccc(OC(F)(F)F)cc3)C1)C2` (mixture of isomers) [Example 22, (rac)-(2s,4s)-2-(1-(4-(Trifluoromethoxy)phenyl)-3-azabicyclo[3.1.0]hexane-3-carbonyl)-7-oxa-5-azaspiro[3.4]octan-6-one], the IC50 stood at 16 nM.

Regarding `O=C1N[C@]2(CO1)C[C@H](C(=O)N1CC3CC3(c3cccc(C(F)(F)F)c3)C1)C2` (mixture of isomers) [Example 23, (rac)-(2s,4s)-2-(1-(3-(Trifluoromethyl)phenyl)-3-azabicyclo[3.1.0]hexane-3-carbonyl)-7-oxa-5-azaspiro[3.4]octan-6-one], the IC50 worked out at 14 nM.

Regarding `O=C1N[C@]2(CO1)C[C@H](C(=O)N1CC3CC3(c3ccc(C(F)(F)F)cc3)C1)C2` (mixture of isomers) [Example 24, (rac)-(2s,4s)-2-(1-(4-(Trifluoromethyl)phenyl)-3-azabicyclo[3.1.0]hexane-3-carbonyl)-7-oxa-5-azaspiro[3.4]octan-6-one], the IC50 came out at 15 nM.

With `Cc1ccc(C23CC2CN(C(=O)[C@H]2C[C@]4(COC(=O)N4)C2)C3)cc1C(F)(F)F` (mixture of isomers) [Example 25, (rac)-(2s,4s)-2-(1-(4-Methyl-3-(trifluoromethyl)phenyl)-3-azabicyclo[3.1.0]hexane-3-carbonyl)-7-oxa-5-azaspiro[3.4]octan-6-one], the IC50 turned out to be 3.6 nM.

For `CC1(c2ccc(C34CC3CN(C(=O)[C@H]3C[C@]5(CCC(=O)N5)C3)C4)cc2)CC1` (mixture of isomers) [Example 27, (rac)-(2r,4s)-2-(1-(4-(1-Methylcyclopropyl)phenyl)-3-azabicyclo[3.1.0]hexane-3-carbonyl)-5-azaspiro[3.4]octan-6-one], the IC50 came to 9.5 nM.

Turning to `O=C1N[C@]2(CO1)C[C@H](C(=O)N1CC3CC3(c3ccc(Oc4ccccc4)cc3)C1)C2` (mixture of isomers) [Example 28, (rac)-(2s,4s)-2-(1-(4-Phenoxyphenyl)-3-azabicyclo[3.1.0]hexane-3-carbonyl)-7-oxa-5-azaspiro[3.4]octan-6-one], the IC50 was found to be 1.7 nM.

Regarding `O=C1N[C@]2(CO1)C[C@H](C(=O)N1CC3CC3(c3cccc(Oc4ccccc4)c3)C1)C2` (mixture of isomers) [Example 29, (rac)-(2s,4s)-2-(1-(3-Phenoxyphenyl)-3-azabicyclo[3.1.0]hexane-3-carbonyl)-7-oxa-5-azaspiro[3.4]octan-6-one], the IC50 worked out at 1.5 nM.

For `Cc1ccc(C23CC2CN(C(=O)[C@H]2C[C@]4(COC(=O)N4)C2)C3)cc1Cl` (mixture of isomers) [Example 30, (rac)-(2s,4s)-2-(1-(3-Chloro-4-methylphenyl)-3-azabicyclo[3.1.0]hexane-3-carbonyl)-7-oxa-5-azaspiro[3.4]octan-6-one], the IC50 turned out to be 2.9 nM.

Turning to `CC1(c2cccc(C34CC3CN(C(=O)[C@H]3C[C@]5(COC(=O)N5)C3)C4)c2)CC1` (mixture of isomers) [Example 31, (rac)-(2s,4s)-2-(1-(3-(1-Methylcyclopropyl)phenyl)-3-azabicyclo[3.1.0]hexane-3-carbonyl)-7-oxa-5-azaspiro[3.4]octan-6-one], the IC50 is 1.1 nM.

On to `Cc1cc(C(F)(F)F)ccc1C12CC1CN(C(=O)[C@H]1C[C@]3(COC(=O)N3)C1)C2` (mixture of isomers) [Example 33, (rac)-(2s,4s)-2-(1-(2-Methyl-4-(trifluoromethyl)phenyl)-3-azabicyclo[3.1.0]hexane-3-carbonyl)-7-oxa-5-azaspiro[3.4]octan-6-one], for which the IC50 amounted to 2.5 nM.

As to `Cc1cc(OC(F)(F)F)ccc1C12CC1CN(C(=O)[C@H]1C[C@]3(COC(=O)N3)C1)C2` (mixture of isomers) [Example 34, (rac)-(2s,4s)-2-(1-(2-Methyl-4-(trifluoromethoxy)phenyl)-3-azabicyclo[3.1.0]hexane-3-carbonyl)-7-oxa-5-azaspiro[3.4]octan-6-one], the IC50 was 3.1 nM.

`Cc1cc(C23CC2CN(C(=O)[C@H]2C[C@]4(COC(=O)N4)C2)C3)ccc1OC(F)(F)F` (mixture of isomers) [Example 35, (rac)-(2s,4s)-2-(1-(3-Methyl-4-(trifluoromethoxy)phenyl)-3-azabicyclo[3.1.0]hexane-3-carbonyl)-7-oxa-5-azaspiro[3.4]octan-6-one]: the IC50 was found to be 6.5 nM.
